Laboratory results: US12472185B2, “Methods for killing antibiotic tolerant bacteria” (THE PENN STATE RESEARCH FOUNDATION, priority 2020, dated 2025)
“And” between values parts separate entries of the source, which are not always exact repeats. Equal entries are not always repeated.

Experiments:
E. coli BW25113 = test: LIVE/DEAD staining; assay type: cell-based, Escherichia coli; details: 100 μM, exponentially-growing cells
Procedure: FIG. 4. NPIMA lyses Escherichia coli, Pseudomonas aeruginosa, and Staphylococcus aureus. LIVE/DEAD staining of (a) E. coli BW25113 after 0.75 hr, (b) P. aeruginosa PA14 after 1 hr, and (c) S. aureus after 1 hr treatment with NPIMA at 100 μM. […] White arrows indicate lysed cells. Representative images are shown. Scale bar=[…]. NPIMA, 5-nitro-3-phenyl-1H-indol-2-ylmethylamine hydrochloride.
Cell viability after treating with NPIMA was determined using the using the LIVE/DEAD BacLight Bacterial Viability Kit (catalog number, L7012; Molecular Probes, Inc., Eugene, OR). The fluorescence signal was analyzed via a Zeiss Axioscope.A1 using excitation at 485 nm and emission at 530 nm for green fluorescence and using excitation at 485 nm and emission at 630 nm for red fluorescence.

[1] = test system: S. aureus exponentially-growing cells; test: Killing at one MIC in PBS, NPIMA compared with cisplatin; assay type: cell-based, Staphylococcus aureus; details: 3 hr
From the text: (§1) FIG. 7. NPIMA compared width cisplatin for killing Pseudomonas aeruginosa, Escherichia coli, and Staphylococcus aureus. Survival of exponentially-growing cells of P. aeruginosa PA14 (a), E. coli (b), and S. aureus (c) treated with one MIC of NPIMA (♦) and cisplatin (●) for 3 hr in PBS. DMSO (▴) and NaClO4 (*) were used as a negative controls. MIC, minimum inhibitory concentration; NPIMA, 5-nitro-3-phenyl-1H-indol-2-yl-methylamine hydrochloride.
(§2) For bacterial viability, cells were washed twice with 0.85% NaCl, resuspended in 1×PBS, and cell counts were determined via the drop assay (Donegan, Matyac, Seidler, & Porteous, 1991). For human cell viability, pre-cultured human cancer HT-29 cells were dispensed in 98 μl in 96-well plates with approximately 5,000 cells/well. NPIMA was added (2 μl) to produce concentrations of 5, 10, 100, and 200 μM. For controls, Triton X-100 (positive control) and DMSO (negative solvent control), were used, and the medium was used for background. Plates were incubated in a humidified incubator (37° C., 5% CO2) for 24 hr. Cell viability was determined via a cell counting kit (CCK-8 Kit, ab228554; Abcam), and cytotoxicity was determined via the lactate dehydrogenase (LDH) assay (LDH Assay Kit, MK401; Takara).

[2] = test system: E. coli exponentially-growing cells; test: as above; assay type: cell-based, Escherichia coli; details: 3 hr
From the text: as §1, §2

[3] = test system: natural E. coli persister cells; test: Survival of naturally-occurring persister cells (ampicillin only); assay type: cell-based, Escherichia coli; details: NPIMA, compared with rifampicin-generated persisters
Procedure: FIG. 9. NPIMA kills naturally-occurring E. coli persister cells. Survival of E. coli with 5-iodoindole and solvent negative control (DMSO) also shown. Asterisk (*) indicates no viable cells were detected. The persister cells were harvested at stationary-phase of E. coli (turbidity of 6.0 at 600 nm) and non-persister cells were removed by treatment.
E. coli persister cells were prepared following our previous method (Kim, Yamasaki, et al., 2018; Kwan, Valenta, Benedik, & Wood, 2013). Exponentially-growing cells (turbidity of 0.8 at 600 nm) were treated with rifampicin (100 μg/ml for 30 min) to stop transcription, washed, and any remaining nonpersister cells were lysed by ampicillin in LB (100 μg/ml for 3 hr). Cells were harvested by centrifugation (17,000 g for 1 min) and washed with 1× phosphate-buffered saline buffer (PBS, 8 g NaCl, 0.2 g KCl, 1.15 g Na2HPO4, and 0.2 g KH2PO4 per 1,000 ml) twice to remove all possible carbon sources, then resuspended with 1×PBS. […]
For bacterial viability, cells were washed twice with 0.85% NaCl, resuspended in 1×PBS, and cell counts were determined via the drop assay (Donegan, Matyac, Seidler, & Porteous, 1991). […] Cell viability was determined via a cell counting kit (CCK-8 Kit, ab228554; Abcam), and cytotoxicity was determined via the lactate dehydrogenase (LDH) assay (LDH Assay Kit, MK401; Takara).

E coli = test: Resistance test by daily propagation at 0.25 MIC; assay type: cell-based, Escherichia coli; details: 7 days at 0.25 MIC (25 μM), then 1 MIC (100 μM) overnight
Procedure: After 7 days, the sequentially-propagated E. coli cells were contacted with LB with 1 MIC of NPIMA (100 μM) and incubated overnight to allow any putative resistant cells to grow and increase the turbidity.

S. aureus ATCC29213 = test: Minimum inhibitory concentration (MIC); assay type: cell-based; details: Staphylococcus aureus, LB, 24 hr
Procedure: (§3) The bacteria used in this study are E. coli K-12 BW25113 (Baba et al., 2006), S. aureus ATCC29213, and P. aeruginosa PA14 (Liberati et al., 2006). Lysogeny broth (LB; Bertani, 1951) was used at 37° C. for culturing the bacteria. 2-(Aminomethyl)-indole was obtained from Sigma-Aldrich (catalog number 563838), and 2-methyl-5-nitro-3-phenyl-1H-indole was obtained from ChemBridge (San Diego, CA).
(§4) To determine the MICs of NPIMA and 5-iodoindole for E. coli K-12, S. aureus, and P. aeruginosa PA14, cells were inoculated into LB at varying concentrations and grown for 24 hr. The MIC was determined as the lowest concentration that prevented an increase in growth as evidenced by a lack of change of turbidity.

E. coli K-12 BW25113 = test: Minimum inhibitory concentration (MIC); assay type: cell-based; details: Escherichia coli, LB, 24 hr
Procedure: as §3, §4

P. aeruginosa PA14 = test: Minimum inhibitory concentration (MIC); assay type: cell-based; details: Pseudomonas aeruginosa, LB, 24 hr
Procedure: as §3, §4

human cancer HT-29 cells = test: Viability (CCK-8) and cytotoxicity (LDH) assays; assay type: cell-based; details: 24 hr
Procedure: FIG. 11. Cytotoxicity of NPIMA with HT-29 cells. (A) Cell viability was measured via a CCK-8 assay. (B) Cytotoxicity was measured with various concentrations of NPIMA […] for 24 h. Cell viability was measured at 450 nm, and cell toxicity was measured at 492 nm and a reference wavelength ([…]) was used.
as §2

Cl.NCc1[nH]c2ccc([N+](=O)[O-])cc2c1-c1ccccc1 [NPIMA, [(5-nitro-3-phenyl-1H-indol-2-yl)methyl]amine hydrochloride]
cell lysis seen by LIVE/DEAD staining (extracellular DNA) (E. coli BW25113): lysed
effectiveness relative to cisplatin [1]: less effective than cisplatin
effectiveness relative to cisplatin [2]: more effective than cisplatin
killing of natural persisters (ampicillin treatment only) [3]: killed in an identical manner
resistance after propagation (E coli): all of the E. coli cells were killed
MIC (S. aureus ATCC29213): 100 µM
MIC (E. coli K-12 BW25113): 100 µM and 15 µg/mL
MIC (P. aeruginosa PA14): 250 µM
toxicity (LDH and CCK-8) (human cancer HT-29 cells; 5 μM): not toxic
toxicity (LDH and CCK-8) (human cancer HT-29 cells; 10 μM): not toxic
concentrations showing toxicity in both tests (human cancer HT-29 cells): ≥ 50 µM
